The NIST ThermoML archive (doi:10.1021/je0501639)

Legend:
[1] = xn = mol fraction of the nth substance listed; settings: 100.8 kPa, Liquid
[2] = refractive index (Na D-line) (dimensionless); xn = mol fraction of the nth substance listed; settings: 100.8 kPa, Liquid, Standard Abbe refractometry

CC(C)CC(C)(C)C [2,2,4-trimethylpentane] + CCO
Settings | mass density, 298.15 K [kg/m3] | mass density, 308.15 K [kg/m3] | mass density, 318.15 K [kg/m3] | refractive index, 298.15 K | refractive index, 308.15 K | refractive index, 318.15 K | viscosity, 298.15 K [mPa·s] | viscosity, 308.15 K [mPa·s] | viscosity, 318.15 K [mPa·s]
[1], x2 = 0 | 687.89 | 679.55 | 671.1 | – | – | – | 0.474 | 0.425 | 0.38
[1], x2 = 0.05 | 688.94 | 680.44 | 671.89 | – | – | – | 0.472 | 0.421 | 0.376
[1], x2 = 0.1 | 690.43 | 681.85 | 673.2 | – | – | – | 0.47 | 0.419 | 0.377
[1], x2 = 0.15 | 692.16 | 683.55 | 674.81 | – | – | – | 0.476 | 0.423 | 0.378
[1], x2 = 0.2 | 694.08 | 685.46 | 676.67 | – | – | – | 0.485 | 0.428 | 0.381
[1], x2 = 0.25 | 696.22 | 687.59 | 678.74 | – | – | – | 0.494 | 0.435 | 0.387
[1], x2 = 0.3 | 698.58 | 689.91 | 681.05 | – | – | – | 0.506 | 0.443 | 0.392
[1], x2 = 0.35 | 701.19 | 692.48 | 683.6 | – | – | – | 0.52 | 0.453 | 0.401
[1], x2 = 0.4 | 704.04 | 695.33 | 686.41 | – | – | – | 0.538 | 0.469 | 0.413
[1], x2 = 0.45 | 707.19 | 698.47 | 689.53 | – | – | – | 0.558 | 0.487 | 0.426
[1], x2 = 0.5 | 710.69 | 701.95 | 693 | – | – | – | 0.583 | 0.507 | 0.443
[1], x2 = 0.55 | 714.59 | 705.81 | 696.87 | – | – | – | 0.611 | 0.53 | 0.461
[1], x2 = 0.6 | 718.95 | 710.14 | 701.18 | – | – | – | 0.642 | 0.555 | 0.483
[1], x2 = 0.65 | 723.82 | 714.99 | 706 | – | – | – | 0.675 | 0.583 | 0.505
[1], x2 = 0.7 | 729.34 | 720.46 | 711.43 | – | – | – | 0.71 | 0.614 | 0.528
[1], x2 = 0.75 | 735.56 | 726.64 | 717.6 | – | – | – | 0.75 | 0.647 | 0.557
[1], x2 = 0.8 | 742.67 | 733.71 | 724.66 | – | – | – | 0.797 | 0.685 | 0.589
[1], x2 = 0.85 | 750.87 | 741.88 | 732.81 | – | – | – | 0.853 | 0.731 | 0.626
[1], x2 = 0.9 | 760.47 | 751.45 | 742.33 | – | – | – | 0.916 | 0.784 | 0.668
[1], x2 = 0.95 | 771.78 | 762.83 | 753.76 | – | – | – | 0.989 | 0.843 | 0.712
[2], x2 = 0 | – | – | – | 1.38898 | 1.38398 | 1.37898 | – | – | –
[2], x2 = 0.05 | – | – | – | 1.38825 | 1.38325 | 1.37815 | – | – | –
[2], x2 = 0.1 | – | – | – | 1.38749 | 1.38247 | 1.37738 | – | – | –
[2], x2 = 0.15 | – | – | – | 1.38668 | 1.38169 | 1.37662 | – | – | –
[2], x2 = 0.2 | – | – | – | 1.38586 | 1.38087 | 1.37584 | – | – | –
[2], x2 = 0.25 | – | – | – | 1.38499 | 1.38002 | 1.37503 | – | – | –
[2], x2 = 0.3 | – | – | – | 1.38408 | 1.37913 | 1.37417 | – | – | –
[2], x2 = 0.35 | – | – | – | 1.38311 | 1.37819 | 1.37326 | – | – | –
[2], x2 = 0.4 | – | – | – | 1.38208 | 1.37719 | 1.37229 | – | – | –
[2], x2 = 0.45 | – | – | – | 1.38098 | 1.37612 | 1.37125 | – | – | –
[2], x2 = 0.5 | – | – | – | 1.3798 | 1.37497 | 1.37013 | – | – | –
[2], x2 = 0.55 | – | – | – | 1.37853 | 1.37373 | 1.36892 | – | – | –
[2], x2 = 0.6 | – | – | – | 1.37716 | 1.37239 | 1.36762 | – | – | –
[2], x2 = 0.65 | – | – | – | 1.37567 | 1.37093 | 1.36621 | – | – | –
[2], x2 = 0.7 | – | – | – | 1.37403 | 1.36933 | 1.36466 | – | – | –
[2], x2 = 0.75 | – | – | – | 1.37223 | 1.36757 | 1.36295 | – | – | –
[2], x2 = 0.8 | – | – | – | 1.37023 | 1.36562 | 1.36106 | – | – | –
[2], x2 = 0.85 | – | – | – | 1.36799 | 1.36345 | 1.35896 | – | – | –
[2], x2 = 0.9 | – | – | – | 1.36547 | 1.36102 | 1.3566 | – | – | –
[2], x2 = 0.95 | – | – | – | 1.36261 | 1.35826 | 1.35396 | – | – | –

CC(C)(C)O [2-methylpropan-2-ol] + CCO
viscosity [mPa·s], [1], Falling or rolling sphere viscometry
Settings | 298.15 K | 308.15 K | 318.15 K
x2 = 0 | 4.43 | 2.622 | 1.708
x2 = 0.05 | 4.295 | 2.587 | 1.73
x2 = 0.1 | 4.135 | 2.536 | 1.719
x2 = 0.15 | 3.949 | 2.463 | 1.698
x2 = 0.2 | 3.752 | 2.374 | 1.662
x2 = 0.25 | 3.552 | 2.277 | 1.618
x2 = 0.3 | 3.348 | 2.18 | 1.568
x2 = 0.35 | 3.134 | 2.082 | 1.515
x2 = 0.4 | 2.905 | 1.978 | 1.456
x2 = 0.45 | 2.668 | 1.877 | 1.395
x2 = 0.5 | 2.462 | 1.772 | 1.332
x2 = 0.55 | 2.272 | 1.675 | 1.272
x2 = 0.6 | 2.097 | 1.575 | 1.213
x2 = 0.65 | 1.934 | 1.475 | 1.153
x2 = 0.7 | 1.782 | 1.38 | 1.092
x2 = 0.75 | 1.644 | 1.291 | 1.032
x2 = 0.8 | 1.518 | 1.206 | 0.974
x2 = 0.85 | 1.4 | 1.126 | 0.919
x2 = 0.9 | 1.285 | 1.048 | 0.862
x2 = 0.95 | 1.188 | 0.976 | 0.805

Settings | mass density, 298.15 K [kg/m3] | mass density, 308.15 K [kg/m3] | mass density, 318.15 K [kg/m3] | refractive index, 298.15 K | refractive index, 308.15 K | refractive index, 318.15 K
[1], x2 = 0 | 780.99 | 770.7 | 760.05 | – | – | –
[1], x2 = 0.05 | 782.27 | 772.23 | 761.94 | – | – | –
[1], x2 = 0.1 | 782.82 | 772.95 | 762.82 | – | – | –
[1], x2 = 0.15 | 783.19 | 773.6 | 763.53 | – | – | –
[1], x2 = 0.2 | 783.47 | 774.03 | 764.14 | – | – | –
[1], x2 = 0.25 | 783.65 | 774.34 | 764.59 | – | – | –
[1], x2 = 0.3 | 783.81 | 774.62 | 765.01 | – | – | –
[1], x2 = 0.35 | 783.94 | 774.87 | 765.41 | – | – | –
[1], x2 = 0.4 | 784.03 | 775.07 | 765.74 | – | – | –
[1], x2 = 0.45 | 784.11 | 775.29 | 766.04 | – | – | –
[1], x2 = 0.5 | 784.18 | 775.45 | 766.31 | – | – | –
[1], x2 = 0.55 | 784.29 | 775.61 | 766.58 | – | – | –
[1], x2 = 0.6 | 784.32 | 775.68 | 766.72 | – | – | –
[1], x2 = 0.65 | 784.4 | 775.77 | 766.87 | – | – | –
[1], x2 = 0.7 | 784.42 | 775.85 | 767.01 | – | – | –
[1], x2 = 0.75 | 784.49 | 775.93 | 767.15 | – | – | –
[1], x2 = 0.8 | 784.62 | 776.07 | 767.27 | – | – | –
[1], x2 = 0.85 | 784.75 | 776.18 | 767.41 | – | – | –
[1], x2 = 0.9 | 784.86 | 776.28 | 767.51 | – | – | –
[1], x2 = 0.95 | 785.02 | 776.4 | 767.6 | – | – | –
[2], x2 = 0 | – | – | – | 1.38481 | 1.3796 | 1.37416
[2], x2 = 0.05 | – | – | – | 1.38427 | 1.37911 | 1.37378
[2], x2 = 0.1 | – | – | – | 1.38367 | 1.37861 | 1.37336
[2], x2 = 0.15 | – | – | – | 1.38294 | 1.37797 | 1.37284
[2], x2 = 0.2 | – | – | – | 1.38213 | 1.37726 | 1.37224
[2], x2 = 0.25 | – | – | – | 1.38123 | 1.37648 | 1.3715
[2], x2 = 0.3 | – | – | – | 1.38027 | 1.37558 | 1.37072
[2], x2 = 0.35 | – | – | – | 1.37923 | 1.37463 | 1.36984
[2], x2 = 0.4 | – | – | – | 1.37813 | 1.3736 | 1.36891
[2], x2 = 0.45 | – | – | – | 1.37698 | 1.37253 | 1.36791
[2], x2 = 0.5 | – | – | – | 1.37576 | 1.37136 | 1.36682
[2], x2 = 0.55 | – | – | – | 1.37449 | 1.37013 | 1.36567
[2], x2 = 0.6 | – | – | – | 1.37312 | 1.36883 | 1.36442
[2], x2 = 0.65 | – | – | – | 1.37171 | 1.36741 | 1.36304
[2], x2 = 0.7 | – | – | – | 1.37018 | 1.36593 | 1.36162
[2], x2 = 0.75 | – | – | – | 1.36859 | 1.36438 | 1.36007
[2], x2 = 0.8 | – | – | – | 1.3669 | 1.36271 | 1.35848
[2], x2 = 0.85 | – | – | – | 1.36515 | 1.36096 | 1.35677
[2], x2 = 0.9 | – | – | – | 1.36332 | 1.35914 | 1.35498
[2], x2 = 0.95 | – | – | – | 1.36137 | 1.3572 | 1.35308
